Reference: US20110039721A1, “METHOD FOR PREDICTION ABOUT CARCINOGENICITY OF SUBSTANCE IN RODENT” (Chemicals Evaluation and Research Institute, priority 2007, published 2011)
Read-outs that look alike come from different tables or passages of the source.

Assays:
[1] = classification of the substance (M+/M−); cited from earlier work
[2] = system: mRNA expressed from the genes (A) to (D) in rat liver; test: Behavior of genes (mRNA expression level, oligo-DNA microarray) in rat liver after 28-day oral administration; type: in vivo; conditions: for Behavior of gene caused by administration of chemical substance, Gene No. 4846 / Behavior of gene caused by administration of chemical substance, Gene No. 2026 / Behavior of gene caused by administration of chemical substance, Gene No. 4218 / Behavior of gene caused by administration of chemical substance, Gene No. 6182 / Behavior of gene caused by administration of chemical substance, Gene No. 5600: gene group (A); for Behavior of gene caused by administration of chemical substance, Gene No. 4846: Unigene No. Rn.144554; for Behavior of gene caused by administration of chemical substance, Gene No. 2026 / Behavior of gene caused by administration of chemical substance, Gene No. 4218: Unigene No. Rn.167075; for Behavior of gene caused by administration of chemical substance, Gene No. 6182: Unigene No. Rn.5834; for Behavior of gene caused by administration of chemical substance, Gene No. 5600: Unigene No. Rn.9836; for Behavior of gene caused by administration of chemical substance, Gene No. 1494 / Behavior of gene caused by administration of chemical substance, Gene No. 2045 / Behavior of gene caused by administration of chemical substance, Gene No. 2203: gene group (B); for Behavior of gene caused by administration of chemical substance, Gene No. 1494: Unigene No. Rn.1430; for Behavior of gene caused by administration of chemical substance, Gene No. 2045: Unigene No. Rn.19329; for Behavior of gene caused by administration of chemical substance, Gene No. 2203: Unigene No. Rn.21240; for Behavior of gene caused by administration of chemical substance, Gene No. 533 / Behavior of gene caused by administration of chemical substance, Gene No. 725 / Behavior of gene caused by administration of chemical substance, Gene No. 1163 / Behavior of gene caused by administration of chemical substance, Gene No. 4973 / Behavior of gene caused by administration of chemical substance, Gene No. 4095 / Behavior of gene caused by administration of chemical substance, Gene No. 1334 / Behavior of gene caused by administration of chemical substance, Gene No. 6620 / Behavior of gene caused by administration of chemical substance, Gene No. 6303 / Behavior of gene caused by administration of chemical substance, Gene No. 5878 / Behavior of gene caused by administration of chemical substance, Gene No. 1131 / Behavior of gene caused by administration of chemical substance, Gene No. 1562 / Behavior of gene caused by administration of chemical substance, Gene No. 1741 / Behavior of gene caused by administration of chemical substance, Gene No. 893 / Behavior of gene caused by administration of chemical substance, Gene No. 6026 / Behavior of gene caused by administration of chemical substance, Gene No. 154 / Behavior of gene caused by administration of chemical substance, Gene No. 1993 / Behavior of gene caused by administration of chemical substance, Gene No. 813 / Behavior of gene caused by administration of chemical substance, Gene No. 2494 / Behavior of gene caused by administration of chemical substance, Gene No. 2546 / Behavior of gene caused by administration of chemical substance, Gene No. 3776 / Behavior of gene caused by administration of chemical substance, Gene No. 3929 / Behavior of gene caused by administration of chemical substance, Gene No. 1119 / Behavior of gene caused by administration of chemical substance, Gene No. 6742 / Behavior of gene caused by administration of chemical substance, Gene No. 5634: gene group (C); for Behavior of gene caused by administration of chemical substance, Gene No. 533: Unigene No. Rn.106184; for Behavior of gene caused by administration of chemical substance, Gene No. 725: Unigene No. Rn.108075; for Behavior of gene caused by administration of chemical substance, Gene No. 1163: Unigene No. Rn.11766; for Behavior of gene caused by administration of chemical substance, Gene No. 4973: Unigene No. Rn.118529; for Behavior of gene caused by administration of chemical substance, Gene No. 4095: Unigene No. Rn.119024; for Behavior of gene caused by administration of chemical substance, Gene No. 1334 / Behavior of gene caused by administration of chemical substance, Gene No. 6620: Unigene No. Rn.120914; for Behavior of gene caused by administration of chemical substance, Gene No. 6303: Unigene No. Rn.123063; for Behavior of gene caused by administration of chemical substance, Gene No. 5878: Unigene No. Rn.143213; for Behavior of gene caused by administration of chemical substance, Gene No. 1131: Unigene No. Rn.144946; for Behavior of gene caused by administration of chemical substance, Gene No. 1562: Unigene No. Rn.14744; for Behavior of gene caused by administration of chemical substance, Gene No. 1741: Unigene No. Rn.1647; for Behavior of gene caused by administration of chemical substance, Gene No. 893: Unigene No. Rn.164817; for Behavior of gene caused by administration of chemical substance, Gene No. 6026: Unigene No. Rn.167685; for Behavior of gene caused by administration of chemical substance, Gene No. 154: Unigene No. Rn.185941; for Behavior of gene caused by administration of chemical substance, Gene No. 1993: Unigene No. Rn.18728; for Behavior of gene caused by administration of chemical substance, Gene No. 813: Unigene No. Rn.201760; for Behavior of gene caused by administration of chemical substance, Gene No. 2494: Unigene No. Rn.23969; for Behavior of gene caused by administration of chemical substance, Gene No. 2546: Unigene No. Rn.24561; for Behavior of gene caused by administration of chemical substance, Gene No. 3776: Unigene No. Rn.43232; for Behavior of gene caused by administration of chemical substance, Gene No. 3929: Unigene No. Rn.4620; for Behavior of gene caused by administration of chemical substance, Gene No. 1119: Unigene No. Rn.9757; for Behavior of gene caused by administration of chemical substance, Gene No. 6742: Unigene No. Rn.9779; for Behavior of gene caused by administration of chemical substance, Gene No. 5634: Unigene No. Rn.9862; for Behavior of gene caused by administration of chemical substance, Gene No. 5726: gene group (D), Unigene No. Rn.9939
Procedure, shortened: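 Male F344 SPF rats, 5 weeks old, four per group, received carcinogens, non-carcinogens or solvent vehicle by oral gavage once daily for 28 days. Liver total RNA was then extracted. Changes of ≥1.5-fold or ≤1/1.5 versus vehicle control, in a consistent direction across carcinogens, counted as significant.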

liver = conditions: cited from earlier work
rodent = conditions: classification of the substance (C+/C−); cited from earlier work

Cn1c(N)nc2ncc(-c3ccccc3)cc21 [TS045, 2-amino-1-methyl-6-phenylimidazo[4,5-b]-pyridine]
M+: Mutagenicity by Ames test [1]
C+: Carcinogenicity (rodent)
+: Behavior of gene caused by administration of chemical substance, Gene No. 2045 ([2]; mRNA vs vehicle control group) | Behavior of gene caused by administration of chemical substance, Gene No. 2203 ([2]; mRNA vs vehicle control group) | Behavior of gene caused by administration of chemical substance, Gene No. 2494 ([2]; mRNA vs vehicle control group) | Behavior of gene caused by administration of chemical substance, Gene No. 5726 ([2]; mRNA vs vehicle control group)
−: Behavior of gene caused by administration of chemical substance, Gene No. 4846 ([2]; mRNA vs vehicle control group) | Behavior of gene caused by administration of chemical substance, Gene No. 2026 ([2]; mRNA vs vehicle control group) | Behavior of gene caused by administration of chemical substance, Gene No. 4218 ([2]; mRNA vs vehicle control group) | Behavior of gene caused by administration of chemical substance, Gene No. 6182 ([2]; mRNA vs vehicle control group) | Behavior of gene caused by administration of chemical substance, Gene No. 5600 ([2]; mRNA vs vehicle control group) | Behavior of gene caused by administration of chemical substance, Gene No. 1494 ([2]; mRNA vs vehicle control group) | Behavior of gene caused by administration of chemical substance, Gene No. 533 ([2]; mRNA vs vehicle control group) | Behavior of gene caused by administration of chemical substance, Gene No. 725 ([2]; mRNA vs vehicle control group) | Behavior of gene caused by administration of chemical substance, Gene No. 1163 ([2]; mRNA vs vehicle control group) | Behavior of gene caused by administration of chemical substance, Gene No. 4973 ([2]; mRNA vs vehicle control group) | Behavior of gene caused by administration of chemical substance, Gene No. 4095 ([2]; mRNA vs vehicle control group) | Behavior of gene caused by administration of chemical substance, Gene No. 1334 ([2]; mRNA vs vehicle control group) | Behavior of gene caused by administration of chemical substance, Gene No. 6620 ([2]; mRNA vs vehicle control group) | Behavior of gene caused by administration of chemical substance, Gene No. 6303 ([2]; mRNA vs vehicle control group) | Behavior of gene caused by administration of chemical substance, Gene No. 5878 ([2]; mRNA vs vehicle control group) | Behavior of gene caused by administration of chemical substance, Gene No. 1131 ([2]; mRNA vs vehicle control group) | Behavior of gene caused by administration of chemical substance, Gene No. 1562 ([2]; mRNA vs vehicle control group) | Behavior of gene caused by administration of chemical substance, Gene No. 1741 ([2]; mRNA vs vehicle control group) | Behavior of gene caused by administration of chemical substance, Gene No. 893 ([2]; mRNA vs vehicle control group) | Behavior of gene caused by administration of chemical substance, Gene No. 6026 ([2]; mRNA vs vehicle control group) | Behavior of gene caused by administration of chemical substance, Gene No. 154 ([2]; mRNA vs vehicle control group) | Behavior of gene caused by administration of chemical substance, Gene No. 1993 ([2]; mRNA vs vehicle control group) | Behavior of gene caused by administration of chemical substance, Gene No. 813 ([2]; mRNA vs vehicle control group) | Behavior of gene caused by administration of chemical substance, Gene No. 2546 ([2]; mRNA vs vehicle control group) | Behavior of gene caused by administration of chemical substance, Gene No. 3776 ([2]; mRNA vs vehicle control group) | Behavior of gene caused by administration of chemical substance, Gene No. 3929 ([2]; mRNA vs vehicle control group) | Behavior of gene caused by administration of chemical substance, Gene No. 1119 ([2]; mRNA vs vehicle control group) | Behavior of gene caused by administration of chemical substance, Gene No. 6742 ([2]; mRNA vs vehicle control group) | Behavior of gene caused by administration of chemical substance, Gene No. 5634 ([2]; mRNA vs vehicle control group)
Cr−: Liver carcinogenicity (liver; classification of the substance (Cr+/Cr−))

O=C(OC[C@H]1O[C@@H](OC(=O)c2cc(O)c(O)c(OC(=O)c3cc(O)c(O)c(O)c3)c2)[C@H](OC(=O)c2cc(O)c(O)c(OC(=O)c3cc(O)c(O)c(O)c3)c2)[C@@H](OC(=O)c2cc(O)c(O)c(OC(=O)c3cc(O)c(O)c(O)c3)c2)[C@@H]1OC(=O)c1cc(O)c(O)c(OC(=O)c2cc(O)c(O)c(O)c2)c1)c1cc(O)c(O)c(OC(=O)c2cc(O)c(O)c(O)c2)c1 [TS052, Tannic acid]
−: Behavior of gene caused by administration of chemical substance, Gene No. 4846 [2] | Behavior of gene caused by administration of chemical substance, Gene No. 2026 [2] | Behavior of gene caused by administration of chemical substance, Gene No. 4218 [2] | Behavior of gene caused by administration of chemical substance, Gene No. 6182 [2] | Behavior of gene caused by administration of chemical substance, Gene No. 5600 [2] | Behavior of gene caused by administration of chemical substance, Gene No. 1494 [2] | Behavior of gene caused by administration of chemical substance, Gene No. 2045 [2] | Behavior of gene caused by administration of chemical substance, Gene No. 533 [2] | Behavior of gene caused by administration of chemical substance, Gene No. 725 [2] | Behavior of gene caused by administration of chemical substance, Gene No. 4973 [2] | Behavior of gene caused by administration of chemical substance, Gene No. 4095 [2] | Behavior of gene caused by administration of chemical substance, Gene No. 1334 [2] | Behavior of gene caused by administration of chemical substance, Gene No. 6620 [2] | Behavior of gene caused by administration of chemical substance, Gene No. 6303 [2] | Behavior of gene caused by administration of chemical substance, Gene No. 5878 [2] | Behavior of gene caused by administration of chemical substance, Gene No. 1131 [2] | Behavior of gene caused by administration of chemical substance, Gene No. 1562 [2] | Behavior of gene caused by administration of chemical substance, Gene No. 1741 [2] | Behavior of gene caused by administration of chemical substance, Gene No. 893 [2] | Behavior of gene caused by administration of chemical substance, Gene No. 6026 [2] | Behavior of gene caused by administration of chemical substance, Gene No. 154 [2] | Behavior of gene caused by administration of chemical substance, Gene No. 1993 [2] | Behavior of gene caused by administration of chemical substance, Gene No. 813 [2] | Behavior of gene caused by administration of chemical substance, Gene No. 2494 [2] | Behavior of gene caused by administration of chemical substance, Gene No. 2546 [2] | Behavior of gene caused by administration of chemical substance, Gene No. 3776 [2] | Behavior of gene caused by administration of chemical substance, Gene No. 3929 [2] | Behavior of gene caused by administration of chemical substance, Gene No. 1119 [2] | Behavior of gene caused by administration of chemical substance, Gene No. 6742 [2] | Behavior of gene caused by administration of chemical substance, Gene No. 5634 [2] | Behavior of gene caused by administration of chemical substance, Gene No. 5726 [2]
C+: Carcinogenicity (rodent)
+: Behavior of gene caused by administration of chemical substance, Gene No. 2203 [2] | Behavior of gene caused by administration of chemical substance, Gene No. 1163 [2]
Cr+: Liver carcinogenicity (liver; in vivo)
M−: Mutagenicity by Ames test [1]
